Results reported in patent publication US20230125585A1, “DOSING PROTOCOLS AND REGIMENS FOR AMINOSTEROL TREATMENT” (Enterin, Inc., priority 2019, published 2023).
Like-named read-outs stand apart in the source and are kept apart here.

How the values were obtained:
α-synuclein protein = α-synuclein protein (Homo sapiens, UniProt P37840); details: cited from earlier work
[1] = short term placebo controlled trial, PD constipation; cited from earlier work
[2] = human, in vivo, 25 days
[3] = Absorption / oral bioavailability of aminosterols; type: in vivo; details: oral administration
[4] = Phase 2a (n = 34), drug related adverse events; type: in vivo, human
[5] = intravenous administration; cited from earlier work
[6] = Phase 2(b) study, aminosterol dosage and body position, Parkinson's disease patients
mouse stomach mRNA = assay: Oral dosing of squalamine (ENT-01) in old mice, stomach transcriptome by RNAseq; type: in vivo
From the text: The present example evaluated the impact of oral dosing of squalamine (ENT-01) on the gastrointestinal (GI) tissue of old mice (78 weeks). […] After 2 weeks of dosing the animals were euthanized, and the GI tracts sectioned into stomach, duodenum, jejunum, ileum, caecum, colon, and rectum. The stomach tissues were then sent for histology, and the transcriptomes analyzed by RNAseq.
The dosing schedule used to determine the effect of orally administered squalamine and MSI-1436 on the GI tracts of young and old mice was as follows. Male C57Bl/6 mice, aged 20 and 78 weeks, were obtained from Jackson labs. Animals were exposed to 12 hr light dark cycles and provided Teklad standard mouse diet and water ad lib.
Animals were dosed once daily by oral gavage in the morning for a total of 14 days. Animals were fasted 3-4 hours prior to dosing and 1 hour following. The test article was dissolved in 0.5% hydroxypropylcellulose in water. On day 15 the animals were euthanized by CO2 asphyxiation, necropsied, and tissues prepared for histology and RNAseq analysis.
The GI tracts of the animals were sectioned into stomach, duodenum, jejunum, ileum, caecum, colon, and rectum. The tissues were then sent for histology, and the transcriptomes analyzed by RNAseq.

[7] = orally administered; mice with constipation due to overexpression of human αS; cited from earlier work
[8] = 15 patients with assessable MMSE improvement

CC(C)[C@@H](CC[C@@H](C)[C@H]1CC[C@H]2[C@@H]3[C@H](O)C[C@H]4C[C@@H](NCCCNCCCCNCCCN)CC[C@]4(C)[C@H]3CC[C@]12C)OS(=O)(=O)O [aminosterol 1436]
initiation of aggregation of the α-synuclein protein (α-synuclein protein): inhibit the initiation of aggregation

CCCCC(F)(F)[C@@]1(O)CC[C@H]2[C@@H](CC(=O)[C@@H]2CCCCCCC(=O)O)O1 [Lubiprostone]
share of treated in whom effective [1]: about 50%

CC(C)[C@@H](CC[C@@H](C)[C@H]1CC[C@H]2[C@@H]3[C@H](O)C[C@H]4C[C@@H](NCCCNCCCCN)CC[C@]4(C)[C@H]3CC[C@]12C)OS(=O)(=O)O [squalamine]
Drug related adverse event Diarrhea, Mild, % [2]: (2.7) %
Drug related adverse event Diarrhea, Moderate, % [2]: (2.7) %
Drug related adverse event Diarrhea, Severe, % [2]: (2.7) %
Drug related adverse event Dizziness, Mild, % [2]: (3) %
Drug related adverse event Nausea, Mild, % [2]: (6.3) %
Drug related adverse event Nausea, Moderate, % [2]: (2.7) %
Drug related adverse event Vomiting, Mild, % [2]: (2.7) %
Drug related adverse event Vomiting, Moderate, % [2]: (2.7) %
Unrelated adverse event Contusion*, Mild, % [2]: (2.1) %
Unrelated adverse event Dizziness, Mild, % [2]: (4.2) %
Unrelated adverse event Fall*, Mild, % [2]: (4.2) %
Unrelated adverse event Fall*, Moderate, % [2]: (2.1) %
Unrelated adverse event Pain*, Mild, % [2]: (2.1) %
Unrelated adverse event Pain*, Moderate, % [2]: (2.1) %
Unrelated adverse event Phlebotomy site irritation*, Mild, % [2]: (2.1) %
Unrelated adverse event Rectal burning, Mild, % [2]: (2.1) %
Unrelated adverse event Rib fracture*, Mild, % [2]: (2.1) %
Unrelated adverse event Squamous cell Ca*, Mild, % [2]: (2.1) %
Unrelated adverse event Syncope*, Moderate, % [2]: (2.1) %
initiation of aggregation of the α-synuclein protein (α-synuclein protein): inhibit the initiation of aggregation
absorption in blood [3]: less than 0.3%
Drug related adverse event Diarrhea, Mild, % [4]: (35) %
Drug related adverse event Diarrhea, Moderate, % [4]: (5.8) %
Drug related adverse event Diarrhea, Severe, % [4]: (2.9) %
Drug related adverse event Dizziness, Mild, % [4]: (20.5) %
Drug related adverse event Dizziness, Moderate, % [4]: (2.9) %
Drug related adverse event Nausea, Mild, % [4]: (47) %
Drug related adverse event Nausea, Moderate, % [4]: (2.9) %
Drug related adverse event Vomiting, Mild, % [4]: (5.8) %
gastrointestinal motility [5]: not associated with increased gastrointestinal motility
patients with MMSE improvement of 3 or more points [6, 8]: 33%
patients with MMSE improvement of 4 or more points [6, 8]: 20%
patients with MMSE improvement of 5 or more points [6, 8]: 13%
patients with MMSE improvement of 6 or more points [6, 8]: 1/15
patients responding to drug treatment (increase in CSBM) ([6]; 29 patients with assessable bowel movements, 75 or 150 mg/daily, 25 days): About 80%
hallucinations ([6]; Phase 2(b), PD patients): reduction in hallucinations
sleep fragmentation ([6]; Phase 2(b), PD patients): decrease in sleep fragmentation
total sleep time ([6]; Phase 2(b), PD patients): increase in total sleep time
bowel function, MMSE scores, amount and quality of sleep, other neurological indices (UPDRS) ([6]; dose taken sitting or standing, compared to lying down): qualitative improvements
Unrelated adverse event Flu-like symptoms*, Mild, % ([6]; n = 47): (6.3) %
Corneodesmosin mRNA % increase (mouse stomach mRNA; old + Ent-01 vs old mice): 94%
Cornifelin mRNA % increase (mouse stomach mRNA; old + Ent-01 vs old mice): 261%
Dermokine mRNA % increase (mouse stomach mRNA; old + Ent-01 vs old mice): 290%
Filaggrin mRNA % increase (mouse stomach mRNA; old + Ent-01 vs old mice): 671%
H19_imprinted_maternally_expressed_transcript mRNA % increase (mouse stomach mRNA; old + Ent-01 vs old mice): 656%
Hornerin mRNA % increase (mouse stomach mRNA; old + Ent-01 vs old mice): 253%
Loricrin mRNA % increase (mouse stomach mRNA; old + Ent-01 vs old mice): 381%
Myoglobin mRNA % increase (mouse stomach mRNA; old + Ent-01 vs old mice): 437%
Sciellin mRNA % increase (mouse stomach mRNA; old + Ent-01 vs old mice): 219%
caspase_14 mRNA % increase (mouse stomach mRNA; old + Ent-01 vs old mice): 664%
collagen_type_XVII_alpha_1 mRNA % increase (mouse stomach mRNA; old + Ent-01 vs old mice): 256%
cystatin_E/M mRNA % increase (mouse stomach mRNA; old + Ent-01 vs old mice): 491%
desmocollin_1 mRNA % increase (mouse stomach mRNA; old + Ent-01 vs old mice): 104%
desmoglein_1_beta mRNA % increase (mouse stomach mRNA; old + Ent-01 vs old mice): 184%
gap_junction_protein_beta_4 mRNA % increase (mouse stomach mRNA; old + Ent-01 vs old mice): 470%
gap_junction_protein_beta_6 mRNA % increase (mouse stomach mRNA; old + Ent-01 vs old mice): 455%
kallikrein_related-peptidase_7_(chymotryptic_stratum mRNA % increase) (mouse stomach mRNA; old + Ent-01 vs old mice): 847%
keratin_1 mRNA % increase (mouse stomach mRNA; old + Ent-01 vs old mice): 425%
keratin_10 mRNA % increase (mouse stomach mRNA; old + Ent-01 vs old mice): 610%
keratinocyte_differentiation_associated_protein mRNA % increase (mouse stomach mRNA; old + Ent-01 vs old mice): 407%
keratinocyte_expressed_proline-rich mRNA % increase (mouse stomach mRNA; old + Ent-01 vs old mice): 270%
late_cornified_envelope_1A1 mRNA % increase (mouse stomach mRNA; old + Ent-01 vs old mice): 339%
late_cornified_envelope_1A2 mRNA % increase (mouse stomach mRNA; old + Ent-01 vs old mice): 361%
late_cornified_envelope_1B mRNA % increase (mouse stomach mRNA; old + Ent-01 vs old mice): 471%
late_cornified_envelope_1C mRNA % increase (mouse stomach mRNA; old + Ent-01 vs old mice): 338%
late_cornified_envelope_1E mRNA % increase (mouse stomach mRNA; old + Ent-01 vs old mice): 340%
late_cornified_envelope_1F mRNA % increase (mouse stomach mRNA; old + Ent-01 vs old mice): 338%
late_cornified_envelope_1G mRNA % increase (mouse stomach mRNA; old + Ent-01 vs old mice): 197%
late_cornified_envelope_1H mRNA % increase (mouse stomach mRNA; old + Ent-01 vs old mice): 233%
late_cornified_envelope_1I mRNA % increase (mouse stomach mRNA; old + Ent-01 vs old mice): 654%
late_cornified_envelope_1J mRNA % increase (mouse stomach mRNA; old + Ent-01 vs old mice): 296%
late_cornified_envelope_1L mRNA % increase (mouse stomach mRNA; old + Ent-01 vs old mice): 365%
late_cornified_envelope_1M mRNA % increase (mouse stomach mRNA; old + Ent-01 vs old mice): 656%
late_cornified_envelope_3C mRNA % increase (mouse stomach mRNA; old + Ent-01 vs old mice): 130%
late_cornified_envelope_3E mRNA % increase (mouse stomach mRNA; old + Ent-01 vs old mice): 205%
late_cornified_envelope_3F mRNA % increase (mouse stomach mRNA; old + Ent-01 vs old mice): 192%
lectin_galactose_binding_soluble_7 mRNA % increase (mouse stomach mRNA; old + Ent-01 vs old mice): 481%
myosin_binding_protein_C_slow-type mRNA % increase (mouse stomach mRNA; old + Ent-01 vs old mice): 209%
myosin_heavy_polypeptide_1_skeletal_muscle mRNA % increase (mouse stomach mRNA; old + Ent-01 vs old mice): 289%
myosin_heavy_polypeptide_8_skeletal_muscle mRNA % increase (mouse stomach mRNA; old + Ent-01 vs old mice): 371%
myosin_light_chain_phosphorylatable_fast_skeletal mRNA % increase (mouse stomach mRNA; old + Ent-01 vs old mice): 295%
myosin_light_polypeptide_3 mRNA % increase (mouse stomach mRNA; old + Ent-01 vs old mice): 747%
myozenin_1 mRNA % increase (mouse stomach mRNA; old + Ent-01 vs old mice): 524%
myozenin_2 mRNA % increase (mouse stomach mRNA; old + Ent-01 vs old mice): 341%
titin-cap mRNA % increase (mouse stomach mRNA; old + Ent-01 vs old mice): 298%
mRNA levels for all of the genes in Table 4 (mouse stomach mRNA; old mice after treatment with squalamine): significant increase
gastrointestinal motility [7]: stimulates gastrointestinal motility
